Results: patent publication EP1205473A1, “VESAMICOL PIPERAZINE DERIVATIVES AND DRUGS CONTAINING THE SAME” (DAIICHI RADIOISOTOPE LABORATORIES, LTD., priority 1999, dated 2001)

Legend:
vesamicol receptors [1] = target: T1, vesamicol receptors (Rattus norvegicus, UniProt Q62666); experiment: Inhibition experiment: inhibition of binding of radioactive-iodine-labeled DRC140 to P2 fractions; set-up: Synaptic vesicles were extracted and separated from the brain of a rat; from tissue; host or cells: rat brain without cerebellum: P2, crude synaptic vesicles, purified synaptic vesicles
T1 sequence (Q62666 1-530): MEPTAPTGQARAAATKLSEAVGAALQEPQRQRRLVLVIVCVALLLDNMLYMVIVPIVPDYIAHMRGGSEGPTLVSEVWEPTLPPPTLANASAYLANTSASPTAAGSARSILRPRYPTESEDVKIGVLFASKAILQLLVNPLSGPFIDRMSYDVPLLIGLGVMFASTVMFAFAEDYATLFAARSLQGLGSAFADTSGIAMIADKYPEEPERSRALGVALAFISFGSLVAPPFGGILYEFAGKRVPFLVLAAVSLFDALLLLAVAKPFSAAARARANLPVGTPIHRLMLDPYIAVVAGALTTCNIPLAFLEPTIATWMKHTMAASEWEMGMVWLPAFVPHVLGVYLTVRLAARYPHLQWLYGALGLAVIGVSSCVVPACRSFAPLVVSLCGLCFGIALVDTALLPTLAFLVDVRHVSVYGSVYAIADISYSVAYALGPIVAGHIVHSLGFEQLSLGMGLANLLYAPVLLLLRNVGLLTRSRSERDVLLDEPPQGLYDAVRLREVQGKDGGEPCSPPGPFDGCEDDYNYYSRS

vesamicol receptors [2] = target: T1, vesamicol receptors; experiment: Receptor binding test: inhibition of I-125 labeled 5-iodobenzo vesamicol binding to brain homogenate; set-up: from tissue; host or cells: rat brain without cerebellum, P2 fraction; species or system Male Wistar rats; conditions: Inhibitive concentration at 50% (IC50), Vesamicol receptor, Table 5; incubated three hours at 37°C; no unit printed in table (b19 gives nM for DRC140)
Procedure: (§1) Properties relating to binding of the vesamicol piperazine derivatives of the present invention to various receptors were examined as follows. Specifically, ligands which combine with each receptor were incubated together with homogenates prepared as follows.
To measure affinity of vesamicol receptors, I-125 labeled 5-iodobenzo vesamicol (synthesized and labeled according to Jung et al., J. Med. Chem. 33, 2065-2068, 1990) was added to a brain homogenate prepared as follows. The vesamicol piperazine derivatives synthesized in the Examples were added at various concentrations. The mixture was then incubated for three hours at 37°C.
(§2) B (%) =((1 0 0 × [U])^(∩))/([ I C50 (])^(∩) (+ [U])^(∩)) [formula] wherein B(%) is the proportion of specific binding in the total binding, n indicates a Hill coefficient, and U is the concentration of unbound ligand.
Male Wistar rats were anesthetized with ether and were decapitated. The brains were immediately extracted. The cerebella were removed from the brains. 0.32 M sucrose (containing 4 mM HEPES (pH 7.4)) in an amount of five times the wet amount (weight) of this sample was added. The sample was homogenized by a potter-type homogenizer for 12 strokes while cooling with ice. 0.32 M sucrose in the same amount as the homogenate (total: 10 times the wet amount of the original sample) was added. The suspension thus obtained was centrifuged for 5 minutes at 1,000 x g. The precipitate was removed. The supernatant liquid was centrifuged at 9,200 x g for 15 minutes to separate the precipitate from the supernatant liquid. P2 fractions were suspended in a Tris-HCl buffer (pH 7.4) for binding experiments and stored at -80°C until the start of the binding experiment.

sigma receptors = target: T2, sigma receptors (Cavia porcellus, UniProt Q60492); experiment: Receptor binding test: inhibition of tritium-labeled (+) pentazocine binding to brain homogenate; set-up: species or system male guinea pig
T2 construct: The brain was immediately extracted; The cerebellum was removed from the brain; from tissue; host or cells: guinea pig brain without cerebellum, membrane pellet
Procedure: as §1
To measure affinity to sigma receptors, tritium-labeled (+) pentazocine was added to a brain homogenate prepared as follows. The vesamicol piperazine derivatives synthesized in the Examples were added at various concentrations, and the mixture was incubated for two hours at room temperature.
as §2
A male guinea pig was anesthetized with ether and was decapitated. The brain was immediately extracted. The cerebellum was removed from the brain. 10 mM Tris-sucrose buffer solution (0.32 M sucrose + 10 mM Tris-HCl (pH 7.4)) was added in the amount of 10 ml/g of the tissue. The mixture was homogenized by a potter-type homogenizer for 6-10 strokes. The homogenate was centrifuged at 1,000 x g for 10 minutes at 4°C and the supernatant liquid was collected. The resulting pellets were suspended in the Tris-sucrose buffer solution at the concentration of 2 ml/g, followed by centrifugation at 1,000 x g for 10 minutes at 4°C. The supernatant liquids obtained by the two centrifugation at 1,000 x g were combined and centrifuged at 31,000 x g for 15 minutes at 4°C. The resulting pellets were suspended in a 10 mM Tris-HCl buffer solution (pH 7.4) at a concentration of 3 ml/g of tissue and incubated for 30 minutes at 25°C. After incubation, the suspension was centrifuged at 31,000 x g for 15 minutes at 4°C. The pellets obtained were suspended in a 10 mM Tris-HCl buffer solution (pH 7.4) to make a final concentration of 1.53 ml/g of tissue. The suspension was homogenized by a potter-type homogenizer for 5 strokes. The homogenate was stored at -80°C until the start of the experiment.

[3] = inhibitive concentration at 50% (IC50), Receptor Vesamicol
[4] = Inhibitive concentration at 50% (IC50), Sigma α-1 receptor
[5] = inhibitive concentration at 50% (IC50), Receptor Sigma-1
[6] = Table 7, P2 fractions, inhibition of radioactive-iodine-labeled DRC140 binding, Binding site names the inhibitor's own site, read-out: IC50 (nM) Average ± S.D

T2 sequence (Q60492 whole entry): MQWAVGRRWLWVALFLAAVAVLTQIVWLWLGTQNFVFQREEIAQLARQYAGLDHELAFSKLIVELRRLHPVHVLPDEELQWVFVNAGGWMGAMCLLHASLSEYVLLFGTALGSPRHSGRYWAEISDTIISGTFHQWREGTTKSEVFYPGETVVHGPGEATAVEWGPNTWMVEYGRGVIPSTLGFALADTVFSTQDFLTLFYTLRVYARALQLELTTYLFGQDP

| Molecule | IC50 (vesamicol receptors [2]) | IC50 (vesamicol receptors [1]; [3]) | IC50 (sigma receptors; [5]) | further results |
| --- | --- | --- | --- | --- |
| 5-iodobenzovesamicol [(+)-IBVM, reference compound] |  |  |  | IC50 (vesamicol receptors [1]; read-out: inhibitive concentration at 50% (IC50), Receptor Vesamicol, Table 9, high purity derivatives (HPLC purified), I-125 labeled DRC140, P2 fractions, 3 hours at 37°C, unit inferred): 0.5 nM |
| O[C@@H]1Cc2cccc(I)c2C[C@H]1N1CCN(c2ccccn2)CC1 (racemic) [DRE328, (±)-trans-5-iodo-2-hydroxy-3-[4-[2-pyridyl]-piperazinyl]tetralin] | 38.4 nM |  |  |  |
| Cc1ccccc1N1CCN([C@@H]2Cc3c(I)cccc3C[C@H]2O)CC1 (racemic) [DRE334, (±)-trans-5-iodo-2-hydroxy-3-[4-[2-methylphenyl]piperazinyl]tetralin] | 0.72 nM | 0.74 nM | 4480 nM | IC50 (sigma receptors; [4]): 109 nM |
| Cc1ccccc1N1CCN([C@@H]2Cc3cccc(I)c3C[C@H]2O)CC1 (racemic) [DRE335, (+)-trans-8-iodo-2-hydroxy-3-[4-[2-methylphenyl]piperazinyl]tetralin] | 2.8 nM |  |  |  |
| Cc1ccc(C)c(N2CCN([C@@H]3Cc4c(I)cccc4C[C@H]3O)CC2)c1 (racemic) [DRE348, (±)-trans-5-iodo-2-hydroxy-3-[4-[2,5-dimethylphenyl]piperazinyl]tetralin] | 0.78 nM | 1.16 nM | 5570 nM | IC50 (sigma receptors; [4]): 1500 nM |
| CCc1ccccc1N1CCN([C@@H]2Cc3c(I)cccc3C[C@H]2O)CC1 (racemic) [DRE353, (±)-trans-5-iodo-2-hydroxy-3-[4-[2-ethylphenyl]piperazinyl]tetralin] | 8.74 nM | 1.1 nM | 5110 nM | IC50 (sigma receptors; [4]): 6900 nM |
| Cc1cccc(N2CCN([C@@H]3Cc4c(I)cccc4C[C@H]3O)CC2)c1C (racemic) [DRE354, (±)-trans-5-iodo-2-hydroxy-3-[4-[2,3-dimethylphenyl]piperazinyl]tetralin] | 1.41 nM | 1.67 nM | 4560 nM | IC50 (sigma receptors; [4]): 428 nM |
| Cc1ccc(C)c(N2CCN([C@@H]3Cc4cc(I)ccc4C[C@H]3O)CC2)c1 (racemic) [DRE365, (±)-trans-6-iodo-2-hydroxy-3-[4-[2,5-dimethylphenyl]piperazinyl]tetralin] | 2.9 nM |  |  |  |
| Cc1ccc(C)c(N2CCN([C@@H]3Cc4ccc(I)cc4C[C@H]3O)CC2)c1 (racemic) [DRE366, (±)-trans-7-iodo-2-hydroxy-3-[4-[2,5-dimethylphenyl]-piperazinyl]tetralin] | 1.14 nM | 0.88 nM | 203 nM | IC50 (sigma receptors; [4]): 203 nM |
| COc1ccc(C)c(N2CCN([C@@H]3Cc4c(I)cccc4C[C@H]3O)CC2)c1 (racemic) [DRE378, (±)-trans-5-iodo-2-hydroxy-3-[4-[5-methoxy-2-methylphenyl]piperazinyl]tetralin] | 5.09 nM |  |  |  |
| Cc1cccc(N2CCN([C@@H]3Cc4c(I)cccc4C[C@H]3O)CC2)c1 (racemic) [DRF380, (±)-trans-5-iodo-2-hydroxy-3-[4-[3-methylphenyl]piperazinyl]tetralin] | 3.69 nM | 2.47 nM | 16300 nM |  |
| Cc1ccc(N2CCN([C@@H]3Cc4c(I)cccc4C[C@H]3O)CC2)cc1 (racemic) [DRF381, (±)-trans-5-iodo-2-hydroxy-3-[4-[4-methylphenyl]piperazinyl]tetralin] | 13.9 nM | 14.7 nM | 4780 nM |  |
| COc1ccccc1N1CCN([C@@H]2Cc3c(I)cccc3C[C@H]2O)CC1 (racemic) [DRF400, (±)-trans-5-iodo-2-hydroxy-3-[4-[2-methoxyphenyl]piperazinyl]tetralin] |  | 1.09 nM | 28800 nM |  |
| CC(=O)Nc1ccccc1N1CCN([C@@H]2Cc3c(I)cccc3C[C@H]2O)CC1 (racemic) [DRF401, (±)-trans-5-iodo-2-hydroxy-3-[4-[N-acetyl-2-aminophenyl]-piperazinyl]tetralin] |  | 0.89 nM |  |  |
| Nc1ccccc1N1CCN([C@@H]2Cc3c(I)cccc3C[C@H]2O)CC1 (racemic) [DRF402, (±)-trans-5-iodo-2-hydroxy-3-[4-[2-aminophenyl]piperazinyl]tetralin] |  | 0.63 nM |  |  |
| Oc1ccccc1N1CCN([C@@H]2Cc3c(I)cccc3C[C@H]2O)CC1 (racemic) [DRF403, (±)-trans-5-iodo-2-hydroxy-3-[4-[2-hydroxyphenyl]piperazinyl]tetralin] |  | 2.42 nM | 3030 nM |  |
| Nc1ccccc1N1CCN([C@@H]2Cc3cc(I)ccc3C[C@H]2O)CC1 (racemic) [DRG446, (±)-trans-6-iodo-2-hydroxy-3-[4-[2-aminophenyl]piperazinyl]tetralin] |  | 0.38 nM | 544 nM |  |
| Cc1ccccc1N1CCN([C@@H]2Cc3c(I)cccc3C[C@H]2O)CC1 (single isomer, unassigned) [DRE341, (+)-trans-5-iodo-2-hydroxy-3-[4-[2-methylphenyl]piperazinyl]tetralin] |  | 1.96 nM |  |  |
| Nc1ccccc1N1CCN([C@@H]2Cc3c(I)cccc3C[C@H]2O)CC1 (single isomer, unassigned) [DRF419, (-)-trans-5-iodo-2-hydroxy-3-[4-[2-aminophenyl]piperazinyl]tetralin] |  | 0.3 nM | 4710 nM |  |
| OC1CCCCC1N1CCC(c2ccccc2)CC1 (single isomer, unassigned; (+)) [(+)-Vesamicol, 2-(4-phenyl-piperidino)cyclohexanol, reference compound] |  |  |  | IC50 (vesamicol receptors [1]; IC50 (nM) Average ± S.D): > 5000 nM |
| COc1ccccc1N1CCN(CCCNc2c(C)c(=O)n(C)c(=O)n2C)CC1 [5-Methylurapidil, reference compound] |  |  |  | IC50 (vesamicol receptors [1]; IC50 (nM) Average ± S.D): > 5000 nM |
| CC1=NN=C(c2ccc(N)cc2)c2cc3c(cc2C1)OCO3 [GYKI52466, reference compound] |  |  |  | IC50 (vesamicol receptors [1]; IC50 (nM) Average ± S.D): > 5000 nM |
| CN(C(=O)Cc1ccc(Cl)c(Cl)c1)C(CN1CCCC1)c1cccc(OCC(=O)O)c1 (stereo not shown) [ICI204, 448, reference compound] |  |  |  | IC50 (vesamicol receptors [1]; IC50 (nM) Average ± S.D): > 5000 nM |
| COc1ccccc1N1CCN(CCCCN2C(=O)c3ccccc3C2=O)CC1 [NAN-190, reference compound] |  |  |  | IC50 (vesamicol receptors [1]; [6]): > 5000 nM |
| CNC(=O)Oc1ccc2c(c1)[C@]1(C)CCN(C)[C@@H]1N2C [Physostigmine, reference compound] |  |  |  | IC50 (vesamicol receptors [1]; IC50 (nM) Average ± S.D): > 5000 nM |
| COC(=O)[C@H]1[C@H]2C[C@@H]3c4[nH]c5cc(OC)ccc5c4CCN3C[C@H]2C[C@@H](OC(=O)c2cc(OC)c(OC)c(OC)c2)[C@@H]1OC [Reserpine, reference compound] |  |  |  | IC50 (vesamicol receptors [1]; [6]): > 5000 nM |
